biological target: human DAT wild type (Homo sapiens (Human), UniProt Q01959); experiment: [3H]DA uptake inhibition in intact COS7 cells, hDAT WT; format: cell-based; conditions: [3H]DA uptake inhibition potency, read-out: hDAT WT Ki [S.E. interval]

SMILES | Ki [µM]
CNC(=O)CSC(c1ccccc1)c1ccccc1 [Compound 2g, 2-(Benzhydrylthio)-N-methylacetamide] | 5.5

biological target: human DAT A480T mutant (Homo sapiens (Human), UniProt Q01959, A480T); experiment: [3H]DA uptake inhibition in intact COS7 cells, hDAT A480T; conditions: read-out: hDAT A480T Ki [S.E. interval], [3H]DA uptake inhibition potency
Sequence (Q01959 whole entry A480T): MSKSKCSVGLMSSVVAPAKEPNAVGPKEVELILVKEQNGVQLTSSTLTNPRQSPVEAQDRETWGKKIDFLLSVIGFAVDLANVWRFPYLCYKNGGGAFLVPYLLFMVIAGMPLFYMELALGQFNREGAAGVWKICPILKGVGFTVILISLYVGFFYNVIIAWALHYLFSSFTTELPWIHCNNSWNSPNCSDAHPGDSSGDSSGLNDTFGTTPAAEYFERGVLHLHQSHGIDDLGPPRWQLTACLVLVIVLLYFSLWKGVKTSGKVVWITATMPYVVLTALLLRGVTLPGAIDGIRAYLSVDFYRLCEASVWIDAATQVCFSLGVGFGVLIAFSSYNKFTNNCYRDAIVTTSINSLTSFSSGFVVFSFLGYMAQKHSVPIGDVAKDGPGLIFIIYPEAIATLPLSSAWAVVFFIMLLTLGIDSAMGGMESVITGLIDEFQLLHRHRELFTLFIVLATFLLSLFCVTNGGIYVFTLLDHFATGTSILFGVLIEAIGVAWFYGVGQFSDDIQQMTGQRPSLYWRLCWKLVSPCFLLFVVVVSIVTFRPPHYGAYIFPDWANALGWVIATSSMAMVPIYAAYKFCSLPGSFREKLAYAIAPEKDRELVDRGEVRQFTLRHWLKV

SMILES | Ki [µM]
CNC(=O)CSC(c1ccccc1)c1ccccc1 [Compound 2g, 2-(Benzhydrylthio)-N-methylacetamide] | 3.6

biological target: NET (Rattus norvegicus (Rat), UniProt Q9WTR4); experiment: Norepinephrine Transporter Binding Assay ([3H]Nisoxetine, rat frontal cortex membranes); conditions: not given
Experimental: Binding affinities of all compounds were evaluated at the DAT, SERT, and NET in rat brain membranes using previously described methods:
Norepinephrine Transporter Binding Assay. Brains from male Sprague-Dawley rats weighing 200-225 g (Taconic Labs, Germantown, N.Y.) were removed, frontal cortex dissected and rapidly frozen. Membranes were prepared by homogenizing tissues in 20 volumes (w/v) of 50 mM Tris containing 120 mM NaCl and 5 mM KCl, (pH 7.4 at 25° C.), using a Brinkman Polytron and centrifuged at 50,000×g for 10 min at 4° C. The resulting pellet was resuspended in buffer, recentrifuged and resuspended in buffer to a concentration of 80 mg/mL. Ligand binding experiments were conducted in assay tubes containing 0.5 mL buffer for 60 min at 0-4° C. […] Nonspecific binding was determined using 1 mM desipramine. Incubations were terminated by rapid filtration through Whatman GF/B filters, presoaked in 0.05% polyethylenimine, using a Brandel R48 filtering manifold (Brandel Instruments Gaithersburg, Md.). The filters were washed twice with 3 mL cold buffer and transferred to scintillation vials. Beckman Ready Value (3.0 mL) was added and the vials were counted using a Beckman 6000 liquid scintillation counter (Beckman Coulter Instruments, Fullerton, Calif.). […] All compounds were tested as racemic mixtures.

Chain of NET (Q9WTR4 entry or part of it): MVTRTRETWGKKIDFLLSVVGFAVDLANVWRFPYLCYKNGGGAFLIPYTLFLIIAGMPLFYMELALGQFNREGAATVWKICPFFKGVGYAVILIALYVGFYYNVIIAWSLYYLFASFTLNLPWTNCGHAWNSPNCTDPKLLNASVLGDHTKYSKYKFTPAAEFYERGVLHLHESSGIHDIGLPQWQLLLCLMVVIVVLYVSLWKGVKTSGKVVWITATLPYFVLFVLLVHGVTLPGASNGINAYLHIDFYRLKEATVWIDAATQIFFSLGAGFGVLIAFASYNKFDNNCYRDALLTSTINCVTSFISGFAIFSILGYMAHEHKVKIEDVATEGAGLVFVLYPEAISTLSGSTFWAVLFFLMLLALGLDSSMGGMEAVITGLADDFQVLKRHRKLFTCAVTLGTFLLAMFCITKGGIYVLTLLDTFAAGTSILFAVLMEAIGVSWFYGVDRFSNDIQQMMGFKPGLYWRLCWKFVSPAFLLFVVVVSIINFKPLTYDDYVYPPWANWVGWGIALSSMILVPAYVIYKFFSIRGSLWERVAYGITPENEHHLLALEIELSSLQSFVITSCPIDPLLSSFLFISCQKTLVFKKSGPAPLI

SMILES | Ki [µM]
CC(O)CN1CCN(CCSC(c2ccccc2)c2ccccc2)CC1 (racemic) [Compound 9a, 1-(4-(2-(Benzhydrylthio)ethyl)piperazin-1-yl)propan-2-ol] | 44.5 ± 2.4
OC(Cc1ccccc1)CN1CCN(CCSC(c2ccccc2)c2ccccc2)CC1 (racemic) [Compound 9g, 1-(4-(2-(Benzhydrylthio)ethyl)piperazin-1-yl)-3-phenylpropan-2-ol] | 1.43 ± 0.118
OC(Cc1ccccc1)CN1CCN(CCSC(c2ccc(F)cc2)c2ccc(F)cc2)CC1 (racemic) [Compound 9j, 1-(4-(2-((Bis(4-fluorophenyl)methyl)thio)ethyl)piperazin-1-yl)-3-phenylpropan-2-ol] | 1.95 ± 0.227
CC(O)CN1CCN(CC[S+]([O-])C(c2ccccc2)c2ccccc2)CC1 (racemic) [Compound 10a, 1-(4-(2-(Benzhydrylsulfinyl)ethyl)piperazin-1-yl)propan-2-ol] | > 100
CC(O)CN1CCN(CC[S+]([O-])C(c2ccc(F)cc2)c2ccc(F)cc2)CC1 (racemic) [Compound 10d, 1-(4-(2-((Bis(4-fluorophenyl)methyl)sulfinyl)ethyl)piperazin-1-yl)propan-2-ol] | > 100
[O-][S+](CCN1CCN(CC(O)Cc2ccccc2)CC1)C(c1ccccc1)c1ccccc1 (racemic) [Compound 10g, 1-(4-(2-(Benzhydrylsulfinyl)ethyl)piperazin-1-yl)-3-phenylpropan-2-ol] | 25.3 ± 2.04
NC(=O)CSC(c1ccccc1)c1ccccc1 [Compound 2a, 2-(Benzhydrylthio)acetamide] | > 100
NC(=O)CSC(c1cccc(Cl)c1)c1cccc(Cl)c1 [Compound 2e, 2-((Bis(3-chlorophenyl)methyl)thio)acetamide] | 34
CNC(=O)CSC(c1ccccc1)c1ccccc1 [Compound 2g, 2-(Benzhydrylthio)-N-methylacetamide] | 27.3
C=CCNC(=O)CSC(c1ccccc1)c1ccccc1 [Compound 2j, N-Allyl-2-(benzhydrylthio)acetamide] | > 230
CCCNC(=O)CSC(c1ccccc1)c1ccccc1 [Compound 2k, 2-(Benzhydrylthio)-N-propylacetamide] | 55.9
CCCNC(=O)CSC(c1ccc(F)cc1)c1ccc(F)cc1 [Compound 2l, 2-((Bis(4-fluorophenyl)methyl)thio)-N-propylacetamide] | 61.7
CCCNC(=O)CSC(c1ccc(Br)cc1)c1ccc(Br)cc1 [Compound 2n, 2-((Bis(4-bromophenyl)methyl)thio)-N-propylacetamide] | 10.6
O=C(CSC(c1ccccc1)c1ccccc1)NCC1CC1 [Compound 2o, 2-(Benzhydrylthio)-N-(cyclopropylmethyl)acetamide] | > 100
O=C(CSC(c1ccc(F)cc1)c1ccc(F)cc1)NCC1CC1 [Compound 2p, 2-((Bis(4-fluorophenyl)methyl)thio)-N-(cyclopropylmethyl)acetamide] | 57.6
O=C(CSC(c1ccc(Br)cc1)c1ccc(Br)cc1)NCC1CC1 [Compound 2q, 2-((Bis(4-bromophenyl)methyl)thio)-N-(cyclopropylmethyl)acetamide] | > 100
CCCCNC(=O)CSC(c1ccccc1)c1ccccc1 [Compound 2r, 2-(Benzhydrylthio)-N-butylacetamide] | > 0.1

SMILES | Ki [µM]
O=C(CSC(c1ccc(F)cc1)c1ccc(F)cc1)NCCCc1ccccc1 [Compound 2v, 2-((Bis(4-fluorophenyl)methyl)thio)-N-(3-phenylpropyl)acetamide] | > 100
O=C(CSC(c1ccc(Br)cc1)c1ccc(Br)cc1)NCCCc1ccccc1 [Compound 2x, 2-((Bis(4-bromophenyl)methyl)thio)-N-(3-phenylpropyl)acetamide] | 36.3
O=C(CSC(c1ccc(Br)cc1)c1ccc(Br)cc1)NCCCCc1ccccc1 [Compound 2z, 2-((Bis(4-bromophenyl)methyl)thio)-N-(4-phenylbutyl)acetamide] | > 100
Cc1ccc(C(c2ccc(C)cc2)[S+]([O-])CC(N)=O)cc1 (centres unmarked) [Compound 3a, 2-((Di-p-tolylmethyl)sulfinyl)acetamide] | > 100
NC(=O)C[S+]([O-])C(c1cccc(F)c1)c1cccc(F)c1 (centres unmarked) [Compound 3c, 2-((Bis(3-fluorophenyl)methyl)sulfinyl)acetamide] | > 100
NC(=O)C[S+]([O-])C(c1cccc(Cl)c1)c1cccc(Cl)c1 (centres unmarked) [Compound 3d, 2-((Bis(3-chlorophenyl)methyl)sulfinyl)acetamide] | > 100
NC(=O)C[S+]([O-])C(c1ccccc1)c1cccc(Br)c1 (centres unmarked) [Compound 3e, 2-(((3-Bromophenyl)(phenyl)methyl)sulfinyl)acetamide] | > 100
CNC(=O)C[S+]([O-])C(c1ccccc1)c1ccccc1 (centres unmarked) [Compound 3f, 2-(Benzhydrylsulfinyl)-N-methylacetamide] | > 100
O=C(C[S+]([O-])C(c1ccc(Br)cc1)c1ccc(Br)cc1)NCCCc1ccccc1 (centres unmarked) [Compound 3g, 2-(Bis(4-bromophenyl)methylsulfinyl)-N-(3-phenylpropyl)acetamide] | > 100
CCCCNCCSC(c1ccccc1)c1ccccc1 [Compound 4e, N-(2-(benzhydrylthio)ethyl)butan-1-amine] | 11.5
c1ccc(CCCNCCSC(c2ccccc2)c2ccccc2)cc1 [Compound 4f, N-(2-(benzhydrylthio)ethyl)-3-phenylpropan-1-amine] | 3.91
CCCCNCC[S+]([O-])C(c1ccccc1)c1ccccc1 (centres unmarked) [Compound 5b, N-(2-(benzhydrylsulfinyl)ethyl)butan-1-amine] | > 140
[O-][S+](CCNCCCc1ccccc1)C(c1ccc(F)cc1)c1ccc(F)cc1 (centres unmarked) [Compound 5c, N-(2-((bis(4-fluorophenyl)methyl)sulfinyl)ethyl)-3-phenylpropan-1-amine] | 3.28
[O-][S+](CCNCCCc1ccccc1)C(c1ccc(Cl)cc1)c1ccc(Cl)cc1 (centres unmarked) [Compound 5d, N-(2-((bis(4-chlorophenyl)methyl)sulfinyl)ethyl)-3-phenylpropan-1-amine] | 5.8
Fc1ccc(C(SCCN2CCN(CCCc3ccccc3)CC2)c2ccc(F)cc2)cc1 [Compound 7b, 1-(2-((Bis(4-fluorophenyl)methyl)thio)ethyl)-4-(3-phenylpropyl)piperazine] | 1.89 ± 0.116
[O-][S+](CCN1CCN(CCCc2ccccc2)CC1)C(c1ccccc1)c1ccccc1 (centres unmarked) [Compound 8a, 1-(2-(Benzhydrylsulfinyl)ethyl)-4-(3-phenylpropyl)piperazine] | 5.54 ± 0.808
[O-][S+](CCN1CCN(CCCc2ccccc2)CC1)C(c1ccc(F)cc1)c1ccc(F)cc1 (centres unmarked) [Compound 8b, 1-(2-((Bis(4-fluorophenyl)methyl)sulfinyl)ethyl)-4-(3-phenylpropyl)piperazine] | 4.28 ± 0.343

same assay, conditions: Table 1, thioacetamide and sulfinylacetamide analogs; rat brain membranes; racemic mixtures

SMILES | NET Ki (nM) ± S.E.M.
O=C(CSC(c1ccc(Br)cc1)c1ccc(Br)cc1)NCCCCc1ccccc1 [Compound 2z, 2-((Bis(4-bromophenyl)methyl)thio)-N-(4-phenylbutyl)acetamide] | no displacement

same assay, conditions: Table 5, piperazinyl derivatives; rat brain membranes; read-out: NET Ki ± SEM

SMILES | Ki [µM]
c1ccc(CCCN2CCN(CCSC(c3ccccc3)c3ccccc3)CC2)cc1 [Compound 7a, 1-(2-(Benzhydrylthio)ethyl)-4-(3-phenylpropyl)piperazine] | 0.988 ± 0.0228
